Test results reported in article PMC9468151, “Identification of a binding site on soluble RANKL that can be targeted to inhibit soluble RANK-RANKL interactions and treat osteoporosis” (Nature Communications, 2022).
Values joined by “and” are separate entries in the source; they are usually repeats but may differ in a detail not shown here. Equal values may be shown once.

How the values were obtained:
[1] = system: mRANKL induced osteoclastogenesis; experiment: mRANKL induced osteoclastogenesis assay; format: cell-based, mouse; settings: for OC inhibitory ratio, mRANKL induced (fig. 3d IC50 curve data): replicates
[2] = molecular target: T1, L-RANKL (Rattus norvegicus, UniProt Q9ESE2, D175N); experiment: STD NMR binding assay with L-RANKL; settings: 100 μM protein, 5 mM compound
T1 construct: (3) mRANKL (sRANKL-GSGS-sRANKL, rat 159-318 aa); His6-sumo (N); made in house; host or cells: Escherichia coli BL21 (DE3)
Description: For NMR studies, purified sRANKL or L-RANKL protein samples were buffer exchanged into PBS (Gbico, C10010500BT, pH7.4) using a Millipore spin column (1500 × g for 15 min at 4 °C, repeated six times, each time adding fresh PBS and discarding the flow-through). Protein concentration was determined using BCA method according to the procedure of Pierce^TM BCA Protein Assay Kit (Thermo Fisher Scientific). Compound S3-15 powder was dissolved in H2O as a concentration of 10 mM.
Protein saturation transfer difference (STD) experiments were performed on Bruker Avance III 500 (500 MHz) spectrometer (Columbia University) at 300 K using triple-resonance cryogenic probes optimized for proton detection. All experiments were performed using an independent sample for each experimental measurement as a 500 μL sample in NMR tubes with 100 μM protein and […] S3-15 in final concentration. Uniformly, for STD assay all samples were contained 50 μL protein, 200 μL S3-15 (10 mM in H2O), and 250 μL D2O; for S3-15 two-dimensional spectra reference, samples were 50 μL PBS, 200 μL S3-15 (10 mM in H2O) and 250 μL D2O.

[3] = molecular target: T2, human mRANKL and human OPG (Homo sapiens, UniProt O14788); experiment: mRANKL-OPG binding, HEK 293T cells with full length human RANKL; format: cell-based
T2 construct: HEK 293 T cells that transfer full length mouse RANKL or human RANKL; expressed in transfected cells; host or cells: HEK293T
Description: mRANKL-OPG: MC3T3-E1 cells were differentiated by osteoblast differentiation medium (Pythonbio, China) for 2 days. Then cells were exposed to 1 M NaCl for 5 minutes to remove endogenous OPG, washed once in PBS, and fixed with 70% ethanol for 5 minutes at 4 °C. Fixed cells were wash once by PBS and then exposed to PBS that containing 100 ng mouse OPG (Sino, China) or 100 ng mouse OPG with 1 μM S3-15 and incubated for an additional 30 min at 4 °C. Cell layers were washed 2 times with PBS and lysed with 1% triton in PBS. The concentration of OPG in cell lysates were measured with an OPG ELISA kit (USCN, China). Similar proceed were performed using HEK 293 T cells that transfer full length mouse RANKL or human RANKL.

[4] = system: WT sRANKL induced osteoclast formation with H226A/W194A sRANKL; experiment: Rescue experiment: WT sRANKL combined with W194A or H226A sRANKL; format: cell-based, mouse; design: osteoclast formation (fig. S4b): unit not given here; settings: S3-15 10 μM; for OC numbers: 100 ng/mL WT sRANKL
Description: For the osteoclast formation induced by WT and Q238A sRANKL experiments, BMMs were seeded in 96-well plate in density of 6 × 10^3 cell/ well with α-MEM completed medium containing 10 ng/mL M-CSF for 24 h. Then the cells were treated with 0 μM, 0.3 μM, 3 μM and 10 μM and stimulated with 100 ng/mLWT sRANKL or Q238A sRANKL respectively. For the osteoclast formation induced by WT, W194A, and H226A sRANKL experiments, cells were stimulated with 100 ng/mL WT sRANKL combined W194A, H226A sRANKL in different concentrations (50 ng/mL, 200 ng/mL, and 400 ng/mL) with or without 10 μM S3-15. After 5 days, osteoclasts were formed, and applied TRAP-staining as described above. TRAP-positive multinucleated cells with > 3 nuclei were scored as osteoclasts.

T2 sequence (O14788 whole entry): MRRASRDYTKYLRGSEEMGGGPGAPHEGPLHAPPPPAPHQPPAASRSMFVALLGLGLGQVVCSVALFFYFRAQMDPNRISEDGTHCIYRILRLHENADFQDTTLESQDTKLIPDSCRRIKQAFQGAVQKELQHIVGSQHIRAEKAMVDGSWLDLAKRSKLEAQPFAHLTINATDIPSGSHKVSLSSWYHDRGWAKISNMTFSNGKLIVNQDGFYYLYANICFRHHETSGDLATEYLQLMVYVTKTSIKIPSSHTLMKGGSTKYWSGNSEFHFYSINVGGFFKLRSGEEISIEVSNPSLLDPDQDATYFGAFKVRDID
T1 sequence (Q9ESE2 with tags, fused parts or gaps D175N): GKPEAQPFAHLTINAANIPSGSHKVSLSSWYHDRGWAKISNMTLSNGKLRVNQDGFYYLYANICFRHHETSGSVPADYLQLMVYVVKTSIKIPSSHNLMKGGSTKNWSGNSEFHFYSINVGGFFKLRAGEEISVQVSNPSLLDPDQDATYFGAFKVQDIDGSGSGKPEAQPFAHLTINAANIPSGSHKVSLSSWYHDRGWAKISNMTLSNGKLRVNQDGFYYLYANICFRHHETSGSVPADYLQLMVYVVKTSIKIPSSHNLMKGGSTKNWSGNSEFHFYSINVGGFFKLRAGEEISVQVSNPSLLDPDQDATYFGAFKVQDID

CC(=O)/C(=N\Nc1ccccc1C(=O)O)C(=O)Nc1ccccn1 [S3-15]
OC inhibitory ratio, mRANKL induced (fig. 3d IC50 curve data) ([1]; 0.0023464 μM): -1.8319 and -1.185 and 3.987
OC inhibitory ratio, mRANKL induced (fig. 3d IC50 curve data) ([1]; 0.00774313 μM): -0.2155 and 3.341 and 0.431
OC inhibitory ratio, mRANKL induced (fig. 3d IC50 curve data) ([1]; 0.0255523 μM): 1.724 and 9.483 and -1.8319
OC inhibitory ratio, mRANKL induced (fig. 3d IC50 curve data) ([1]; 0.0843226 μM): 10.4526 and 18.2112 and 10.1293
OC inhibitory ratio, mRANKL induced (fig. 3d IC50 curve data) ([1]; 0.278265 μM): 19.8276 and 9.806 and 12.7155
OC inhibitory ratio, mRANKL induced (fig. 3d IC50 curve data) ([1]; 0.918274 μM): 19.8276 and 9.806 and 12.7155
OC inhibitory ratio, mRANKL induced (fig. 3d IC50 curve data) ([1]; 3.0303 μM): 46.6595 (2×) and 50.5388
OC inhibitory ratio, mRANKL induced (fig. 3d IC50 curve data) ([1]; 10 μM): 62.8233 (2×) and 61.5302
OC inhibitory ratio, mRANKL induced (fig. 3d IC50 curve data) ([1]; 33 μM): 90.3017 and 88.3621 and 89.6552
IC50 ([1]; Mus musculus, +mRANKL): 4.14 µM
STD-NMR binding to L-RANKL (mRANKL) [2]: low binding affinity
human mRANKL and human OPG binding ([3]; 1 μM): no effects
mRANKL-OPG binding signal (fig. S4p) ([3]; OPG+S3-15): 0.1995 and 0.1932 and 0.1954
OC numbers ([4]; H226A RANKL 0 ng/mL): 36 and 29
OC numbers ([4]; H226A RANKL 50 ng/mL): 173 and 156 and 170
OC numbers ([4]; H226A RANKL 200 ng/mL): 113 and 121 and 125
osteoclast formation (fig. S4b) ([4]; W194A RANKL 0 ng/mL): 34 and 49 and 27
osteoclast formation (fig. S4b) ([4]; W194A RANKL 50 ng/mL): 147 and 144 and 140
osteoclast formation (fig. S4b) ([4]; W194A RANKL 200 ng/mL): 145 and 199 and 158
osteoclast formation (fig. S4b) ([4]; W194A RANKL 400 ng/mL): 119 and 118 and 97
